“Also recorded” adds a separate entry of the source.
Key:
[1] = test system: Cytotoxic T cells (CTLs), Natural Killer cells (NK), mMDSCs; experiment: Immune cell sub-populations in tumors, Lewis Lung model; format: in vivo, C57Bl/6 mice; conditions: BGB324 combined with PD-1/PD-L1 compared to PD-1/PD-L1 alone, day 21
Description: • Species/Strain: Balb/c ABomTac • Source: Taconic Farms • Sex: Female • Weight: 20-30 grams on the day of implantation • Age: at least 6 weeks old on the day of randomization • Animal Identification: Cage number and ear notching Experimental Animals for Syngeneic Lewis Lung Model: • Species/Strain: C57BL/6JOlaHsd • Source: Harlan Laboratories • Sex: Female • Weight: 20-30 grams on the day of implantation • Age: at least 6 weeks old on the day of randomization • Animal Identification: Cage number and ear notching Cells and Materials: • RPMI-1640 (Sigma, Cat. # R8758) supplemented with 10% fetal bovine serum (FBS), L-glutamine (4 mM), streptomycin (5 μg/ml) and penicillin (5 U/ml). • BD Matrigel™ Basement Membrane Matrix Growth Factor Reduced, BD Bioscience, Cat. #354230, Lot #2229975. • 0.25% Trypsin-EDTA, Sigma, Cat. # SLBD8049. Drugs Vehicle: 0.5% HPMC/0.1% Tween 80 vehicle for BGB324. Sterile PBS for immune checkpoint inhibitors. IgG: InVivoMAb Polyclonal Armenian Hamster IgG, BE0091, BioXCell, Isotype control for IP injections. BGB324: Manufacturer: Almac Group, N Ireland, batch Q1080. BGB324 powder was stored at room temperature. […] BGB324 was diluted in vehicle to 5 mg/ml dosing solution and administered to the mice immediately. BGB324 solution was freshly prepared every day. Anti-mCTLA-4 (CD152) monoclonal antibody (CTAA-4): Syrian Hamster IgG, clone 9H10 (BioXCell, Cat. # BE0131). […] Anti-mPD-L1 monoclonal antibody (PD-L1): rat IgG2b, clone 10F.9G2 (BioXCell, Cat # BE0101). Methods Cell Culture 4T1 mammary adenocarcinoma cells and Non Small Cell Lung Cancer (NSCLC) Lewis Lung (LL2) were propagated at sub-confluence and split on a regular basis every 3rd day. After trypsinization, the cells were washed once in RPMI/FBS (7 min at 1200 rpm) and re-suspended at 4×10^6 cells/ml (4T1 cells) or 2.5×10^6 per ml (LL2 cells) in a mixture of serum-free RPMI medium and Matrigel (1:1). Subcutaneous Tumor Inoculation Each animal was weighed before cell implantation. Injection of cells was performed after anesthetizing of mice by inhalation of sevoflurane. […]

[2] = test system: Lewis Lung tumors; experiment: Subcutaneous Lewis Lung syngeneic tumor model: survival, tumor burden, metastasis; format: in vivo; conditions: Lewis Lung tumor bearing C57Bl/6 mice; BGB324 combined with PD-1/PD-L1 compared to PD-1/PD-L1 alone
Description: • Species/Strain: Balb/c ABomTac • Source: Taconic Farms • Sex: Female • Weight: 20-30 grams on the day of implantation • Age: at least 6 weeks old on the day of randomization • Animal Identification: Cage number and ear notching Experimental Animals for Syngeneic Lewis Lung Model: • Species/Strain: C57BL/6JOlaHsd • Source: Harlan Laboratories • Sex: Female • Weight: 20-30 grams on the day of implantation • Age: at least 6 weeks old on the day of randomization • Animal Identification: Cage number and ear notching Cells and Materials: • RPMI-1640 (Sigma, Cat. # R8758) supplemented with 10% fetal bovine serum (FBS), L-glutamine (4 mM), streptomycin (5 μg/ml) and penicillin (5 U/ml). • BD Matrigel™ Basement Membrane Matrix Growth Factor Reduced, BD Bioscience, Cat. #354230, Lot #2229975. • 0.25% Trypsin-EDTA, Sigma, Cat. # SLBD8049. Drugs Vehicle: 0.5% HPMC/0.1% Tween 80 vehicle for BGB324. Sterile PBS for immune checkpoint inhibitors. IgG: InVivoMAb Polyclonal Armenian Hamster IgG, BE0091, BioXCell, Isotype control for IP injections. BGB324: Manufacturer: Almac Group, N Ireland, batch Q1080. BGB324 powder was stored at room temperature. […] BGB324 was diluted in vehicle to 5 mg/ml dosing solution and administered to the mice immediately. BGB324 solution was freshly prepared every day. […]

[3] = test system: Cytotoxic T cells (CTLs), Natural Killer cells, macrophages, neutrophils, mMDSCs; experiment: Immune cell sub-populations in tumors and spleens, 4T1 model; format: in vivo, Balb/c mice
Description: • Species/Strain: Balb/c ABomTac • Source: Taconic Farms • Sex: Female • Weight: 20-30 grams on the day of implantation • Age: at least 6 weeks old on the day of randomization • Animal Identification: Cage number and ear notching Experimental Animals for Syngeneic Lewis Lung Model: • Species/Strain: C57BL/6JOlaHsd • Source: Harlan Laboratories • Sex: Female • Weight: 20-30 grams on the day of implantation • Age: at least 6 weeks old on the day of randomization • Animal Identification: Cage number and ear notching Cells and Materials: • RPMI-1640 (Sigma, Cat. # R8758) supplemented with 10% fetal bovine serum (FBS), L-glutamine (4 mM), streptomycin (5 μg/ml) and penicillin (5 U/ml). • BD Matrigel™ Basement Membrane Matrix Growth Factor Reduced, BD Bioscience, Cat. #354230, Lot #2229975. • 0.25% Trypsin-EDTA, Sigma, Cat. # SLBD8049. Drugs Vehicle: 0.5% HPMC/0.1% Tween 80 vehicle for BGB324. Sterile PBS for immune checkpoint inhibitors. IgG: InVivoMAb Polyclonal Armenian Hamster IgG, BE0091, BioXCell, Isotype control for IP injections. BGB324: Manufacturer: Almac Group, N Ireland, batch Q1080. BGB324 powder was stored at room temperature. The BGB324 dosage given was well below the MTD in mice (023-TR-324). […] BGB324 was diluted in vehicle to 5 mg/ml dosing solution and administered to the mice immediately. BGB324 solution was freshly prepared every day. Anti-mCTLA-4 (CD152) monoclonal antibody (CTAA-4): Syrian Hamster IgG, clone 9H10 (BioXCell, Cat. # BE0131). Anti-mPD-1 monoclonal antibody (PD-1): rat IgG2a, clone RMP1-14 (BioXCell, Cat. # BE0146). Anti-mPD-L1 monoclonal antibody (PD-L1): rat IgG2b, clone 10F.9G2 (BioXCell, Cat # BE0101). Methods Cell Culture 4T1 mammary adenocarcinoma cells and Non Small Cell Lung Cancer (NSCLC) Lewis Lung (LL2) were propagated at sub-confluence and split on a regular basis every 3rd day. After trypsinization, the cells were washed once in RPMI/FBS (7 min at 1200 rpm) and re-suspended at 4×10^6 cells/ml (4T1 cells) or 2.5×10^6 per ml (LL2 cells) in a mixture of serum-free RPMI medium and Matrigel (1:1). Subcutaneous Tumor Inoculation Each animal was weighed before cell implantation. Injection of cells was performed after anesthetizing of mice by inhalation of sevoflurane. Anesthesia was induced with 8% sevoflurane and maintained at 4%. During injection, the mouse was placed on a heating pad. For implantation of 4T1 tumors: under a suitable depth of unconsciousness, each mouse was shaved and skin surrounding the region was washed with Chlorhexidine (1 mg/ml) with use of sterile gauze. […] Assignment of Experimental Groups Before commencement of treatment, the animals were weighted and the tumor volume was measured twice a week. […]

[4] = 4T1 model, BGB324 combined with CTLA-4/PD-1 compared to CTLA-4/PD-1 alone, day 11

What does the source list for `Nc1nc(Nc2ccc3c(c2)CC[C@@H](N2CCCC2)CC3)nn1-c1cc2c(nn1)-c1ccccc1CCC2` [BGB324, 1-(6,7-dihydro-5H-benzo[6,7]cyclohepta[1,2-c]pyridazin-3-yl)-N^3-((7-(S)-pyrrolidin-1-yl)-6,7,8,9-tetrahydro-5H-benzo[7]annulene-2-yl)-1H-1,2,4-triazole-3,5-diamine]?
presence of pro-tumorigenic mMDSCs ([1]; Lewis Lung model): reduction in the presence of pro-tumorigenic mMDSC; tumor infiltration / presence of Natural Killer cells (NK) ([1]; Lewis Lung tumors): enhanced presence of NK cells; tumor infiltration of Cytotoxic T cells (CTLs) ([1]; Lewis Lung tumors): enhanced CTL tumor infiltration; survival (tumor reaching 500 mm^3 as endpoint) [2]: significantly prolonged survival; tumor burden [2]: reduced tumor burden; number of CTLs in the spleen ([3]; 4T1 model, 43 days after treatment initiation, compared to immune check point inhibitors alone): further enhanced the number of CTLs; presence of Natural Killer cells, macrophages and neutrophils in spleens [3, 4]: enhanced presence of NK cells, macrophages and PMN neuotrophiles; presence of pro-tumorigenic mMDSCs in spleens [3, 4]: reduction in the presence of pro-tumorigenic mMDSC; tumor infiltration of Cytotoxic T cells (CTLs) ([3]; 4T1 tumors, BGB324 combined with CTLA-4/PD-1 compared to CTLA-4/PD-1 alone): enhanced CTL tumor infiltration; also recorded: further enhanced tumour infiltration of CTLs
